Data on 16 compounds can be found in ChEMBL document CHEMBL1126538, “A novel class of 1,3-oxathiolane nucleoside analogues having potent anti-HIV activity” (1993).

Common to all, as to format: functional
In experiment [1] the test system is MT4. The experiment in a line: Cytotoxic activity against MT-4 cell line. To be noted: Homo sapiens, read-out: CD50 (the source's name).
The subject of experiment [2] is MT4. The experiment in a line: Inhibitory concentration against HIV-1 in MT-4 cell line. To be noted: Homo sapiens, read-out: ID50 (the source's name).
Experiment [3] has as its system MT4. The experiment in a line: Compound was tested for its inhibitory concentration against HIV-1 in MT-4 cell line. To be noted: Homo sapiens, read-out: ID50 (the source's name).

Structures are written as SMILES. Values after ≈ are worked out from the molar mass of the structure shown.

For `Nc1ncnc2c1ncn2[C@@H]1COC(CO)S1` (some centres not stated), the CC50 with MT4 [1] was > 100 µg/mL. The IC50 in the experiment on MT4 [2] is > 100 µg/mL.

Consider `Cc1cn([C@@H]2COC(CO)S2)c(=O)[nH]c1=O` (some centres not stated), for which the CC50 in the experiment with MT4 [1] is > 100 µg/mL. For the same compound, the IC50 in the experiment on MT4 [2] was > 100 µg/mL.

Turning to `O=c1ccn([C@@H]2COC(CO)S2)c(=O)[nH]1` (some centres not stated), the CC50 with MT4 [1] was > 100 µg/mL. Further, the IC50 in the experiment on MT4 [2] was > 100 µg/mL.

With `Nc1ccn([C@@H]2COC(CO)S2)c(=O)n1` (some centres not stated), in the experiment with MT4 [1], the CC50 is > 100 µg/mL. Further, the IC50 in the experiment on MT4 [2] is > 100 µg/mL.

Consider `Nc1nc(=O)n([C@@H]2COC(CO)S2)cc1F` (some centres not stated), for which the CC50 in the experiment with MT4 [1] is > 100 µg/mL. For the same compound, the IC50 in the experiment on MT4 [2] was > 100 µg/mL.

On to `Cc1cn(C2COC(CO)S2)c(=O)[nH]c1=O` (configuration not stated), for which the CC50 in the experiment with MT4 [1] was > 100 µg/mL. For the same compound, in the experiment on MT4 [2], the IC50 was > 100 µg/mL.

`Nc1nc(=O)n(C2COC(CO)S2)cc1F` (configuration not stated): in the experiment on MT4 [1], the CC50 is > 100 µg/mL. Further, in the experiment on MT4 [2], the IC50 came to 2.5 µg/mL (≈ 10.1 µM).

For the compound `Nc1ncnc2c1ncn2[C@@H]1CO[C@H](CO)S1`, the CC50 in the experiment with MT4 [1] turned out to be 100 µg/mL (≈ 395 µM). In the experiment with MT4 [2], the IC50 worked out at 50 µg/mL (≈ 197 µM).

`Nc1ncnc2c1ncn2[C@H]1CO[C@@H](CO)S1`: the CC50 in the experiment on MT4 [1] came out at 100 µg/mL (≈ 395 µM). Moreover, in the experiment on MT4 [2], the IC50 was found to be 1.1 µg/mL (≈ 4.34 µM).

Consider `O=c1ccn(C2COC(CO)S2)c(=O)[nH]1` (configuration not stated), for which the CC50 in the experiment on MT4 [1] was > 100 µg/mL. Also, in the experiment with MT4 [2], the IC50 was > 100 µg/mL.

Turning to `Nc1nc(O)c2ncn(C3COC(CO)S3)c2n1` (configuration not stated), in the experiment with MT4 [1], the CC50 is > 100 µg/mL. Further, in the experiment on MT4 [2], the IC50 was > 100 µg/mL.

For `Nc1ncnc2c1ncn2C1COC(CO)S1` (configuration not stated), the CC50 in the experiment on MT4 [1] came out at 100 µg/mL (≈ 395 µM). In addition, the IC50 with MT4 [2] was 2.1 µg/mL (≈ 8.29 µM).

`Nc1ccn(C2COC(CO)S2)c(=O)n1` (configuration not stated): the IC50 with MT4 [3] is > 10 µg/mL. In the experiment on MT4 [1], the CC50 was found to be 10 µg/mL (≈ 43.6 µM).

Regarding `O=c1[nH]cnc2c1ncn2[C@H]1CC[C@@H](CO)O1` [DIDANOSINE], the CC50 with MT4 [1] was 100 µg/mL (≈ 423 µM). Also, the IC50 with MT4 [2] was found to be 2.3 µg/mL (≈ 9.74 µM).

Regarding `Nc1ccn([C@@H]2CS[C@H](CO)O2)c(=O)n1` [LAMIVUDINE], the CC50 in the experiment on MT4 [1] is > 100 µg/mL. Moreover, the IC50 in the experiment on MT4 [2] is 0.13 µg/mL (≈ 0.567 µM).

For the compound `Cc1cn([C@H]2C[C@H](N=[N+]=[N-])[C@@H](CO)O2)c(=O)[nH]c1=O` [ZIDOVUDINE], the CC50 with MT4 [1] is > 1 µg/mL. Further, in the experiment with MT4 [2], the IC50 is 0.06 µg/mL (≈ 0.225 µM).
